Measured values published in US11964979B2, “Camsylate salts of triazolopyrazine derivatives” (ABION Inc., priority 2022, dated 2024).
Values after ≈ are worked out from the molar mass of the structure shown. Values joined by “and” are separate entries in the source; they are usually repeats but may differ in a detail not shown here. Equal values may be shown once. Read-outs that look alike come from different tables or passages of the source. Each block holds one molecule with its values, some of them ahead of it.

Columns and labels:
[1] = 40° C./75% RH
[2] = DVS analysis (hygroscopicity); type: physicochemical
Method: Differences in hygroscopicity (moisture uptake) of the various forms of a solid material provided a measure of their relative stability at increasing relative humidity. Moisture sorption isotherms of small samples were obtained using a DVS-1 system from Surface Measurement Systems (London, UK); this instrument is suitable for use with as little as a few milligrams of sample, with an accuracy of 0.1 μg. The relative humidity was varied during sorption-desorption-sorption (40-95-0-40% RH) at a constant temperature of 25° C., typically with a hold time of 60 minutes per step (10% relative humidity step). At the end of the DVS experiment the sample was measured by XRPD.
The hygroscopicity was classified according to the European Pharmacopoeia Hygroscopicity classification.

[3] = Physical and chemical stability study up to 2 years (XRPD, TGMS, HPLC)
[4] = Thermal stability study in solution (LCMS); type: physicochemical; settings: for Area % (LCMS): approx. 0.3 mg/mL
Method: A thermal stability study was performed on ABN-401 to investigate the chemical stability of the starting material in solution when exposed to elevated temperatures. Solutions of ABN-401 were prepared in acetone, 1,2-dimethoxyethane, and acetonitrile with a concentration of approximately 0.3 mg/mL. Solutions were left at RT for 1 hour and successively, two aliquots of each solution were taken and heated at 50° C. and 80° C. for one hour. All these solutions were analyzed by LCMS. Additionally, the samples kept at RT were remeasured by LCMS after 24 hours to check the chemical degradation over time.
Starting material characterization and purity assessment of the novel crystalline forms of the free base: • Method name: S19061_03.M • Sample: • Concentration: 0.3 mg/ml • Diluent: Acetonitrile

[5] = Approximate solubility determination by adding aliquots of solvent; type: physicochemical; settings: thermodynamic from solid
Method: The approximate solubility was determined by adding small aliquots of solvent (50 μL up to 1 mL, 100 μL above 1 mL) to the solid starting material until complete dissolution was observed or a maximum volume of 4 mL was reached. Afterwards the solvents were evaporated and obtained solids were analyzed by HT-XRPD.

SMILES: CC1(C)[C@@H]2CC[C@]1(CS(=O)(=O)O)C(=O)C2.CN1CCN(Cc2ccc(-c3cnc(N4CCO[C@H](Cn5nnc6ncc(-c7cnn(C)c7)nc65)C4)nc3)cc2)CC1 (stereo in doubt) [Camp2]
- Form after AAC ([1]; Exp. ID GEN17, Ethanol): Camp2
- Form after AAC ([1]; Exp. ID SSm60, ACN, API:CI 1:1): Camp2
- Form identified by HT-XRPD in the solid recovered after DVS [2]: Camp4
- Change in mass at 80% RH ([2]; 25° C.): 1.4%
- Hygroscopicity (European Pharmacopeia Hygroscopicity classification) ([2]; based on change in mass at 80% RH): slightly hygroscopic
- Water vapor uptake ([2]; first sorption half-cycle, at 95% RH, 25° C.): 15.6%
- Change in mass ([2]; first sorption half-cycle, range 40→95% RH, 25° C.): 14.1%
- Change in mass ([2]; last sorption half-cycle, range 0→40% RH, 25° C.): 6.6%
- Reversibility of water uptake ([2]; sorption-desorption-sorption 40-95-0-40% RH): irreversible
- API chemical purity (area %) ([3]; 25° C./60% RH for 1 month): 99.8%
- Mass loss attributed to water (TGA/TGMS) ([3]; 25° C./60% RH for 1 month): 1.6%
- Solid form by HT-XRPD after exposure ([3]; 25° C./60% RH for 1 month (GEN50)): Camp2
- API chemical purity (area %) ([3]; 25° C./60% RH for 3 months): 99.7%
- Mass loss attributed to water (TGA/TGMS) ([3]; 25° C./60% RH for 3 months): 1.6%
- Solid form by HT-XRPD after exposure ([3]; 25° C./60% RH for 3 months (GEN51)): Camp2
- API chemical purity (area %) ([3]; 25° C./60% RH for 15 months): 99.5% and 97.3%
- Mass loss attributed to water (TGA/TGMS) ([3]; 25° C./60% RH for 15 months): 1.6%
- Solid form by HT-XRPD after exposure ([3]; 25° C./60% RH for 15 months (GEN52)): Camp2
- API chemical purity (area %) ([3]; 25° C./60% RH for 24 months): 100%
- Mass loss attributed to water (TGA/TGMS) ([3]; 25° C./60% RH for 24 months): 1.9%
- Solid form by HT-XRPD after exposure ([3]; 25° C./60% RH for 24 months (GEN53)): Camp2
- Solid form conversion (HT-XRPD) ([3]; 25° C./60% RH up to 24 months): no solid form conversion occurred
- Solid form conversion (HT-XRPD) ([3]; 40° C./75% RH): solid form conversions were observed after 3 months
- API chemical purity (area %) ([3]; 40° C./75% RH for 1 month): 99.8%
- Mass loss attributed to water (TGA/TGMS) ([3]; 40° C./75% RH for 1 month): 1.8%
- Solid form by HT-XRPD after exposure ([3]; 40° C./75% RH for 1 month (GEN54)): Camp2
- API chemical purity (area %) ([3]; 40° C./75% RH for 3 months): 99.3%
- Mass loss attributed to water (TGA/TGMS) ([3]; 40° C./75% RH for 3 months): 7.1%
- Solid form by HT-XRPD after exposure ([3]; 40° C./75% RH for 3 months (GEN55)): Camp4
- API chemical purity (area %) ([3]; 40° C./75% RH for 15 months): 93.7%
- Mass loss attributed to water (TGA/TGMS) ([3]; 40° C./75% RH for 15 months): 6.9%
- Solid form by HT-XRPD after exposure ([3]; 40° C./75% RH for 15 months (GEN56)): Camp4
- API chemical purity (area %) ([3]; 40° C./75% RH for 24 months): 88.6%
- Mass loss attributed to water (TGA/TGMS) ([3]; 40° C./75% RH for 24 months): 6.7%
- Solid form by HT-XRPD after exposure ([3]; 40° C./75% RH for 24 months (GEN57), E = Form E of the free base): Camp3+E

- Area % (LCMS) ([4]; 1,2-dimethoxyethane solution, 1 h/50° C.): 98.6%
- Area % (LCMS) ([4]; 1,2-dimethoxyethane solution, 1 h/80° C.): 97.7%
- Area % (LCMS) ([4]; 1,2-dimethoxyethane solution, 1 h/RT): 99.0%
- Area % (LCMS) ([4]; 1,2-dimethoxyethane solution, 24 h/RT): 98.8%
- Area % (LCMS) ([4]; ACN solution, 1 h/50° C.): 99.0%
- Area % (LCMS) ([4]; ACN solution, 1 h/80° C.): 98.7%
- Area % (LCMS) ([4]; ACN solution, 1 h/RT): 99.0%
- Area % (LCMS) ([4]; ACN solution, 24 h/RT): 98.1%
- Area % (LCMS) ([4]; Acetone solution, 1 h/50° C.): 99.0%
- Area % (LCMS) ([4]; Acetone solution, 1 h/80° C.): 99.0%
- Area % (LCMS) ([4]; Acetone solution, 1 h/RT): 98.8%
- Area % (LCMS) ([4]; Acetone solution, 24 h/RT): 98.5%
- solubility ([5]; organic solvent or mixture, 1,2-Dimethoxyethane (SAS6)): 12.7 to 13.8 mg/mL (≈ 22.4 to 24.4 mM)
- solubility ([5]; organic solvent or mixture, 1,4-Dioxane (SAS4)): > 199 mg/mL
- solubility ([5]; organic solvent or mixture, Acetone (SAS1)): 22.1 to 25.6 mg/mL (≈ 39 to 45.2 mM)
- solubility ([5]; organic solvent or mixture, Chloroform (SAS3)): > 311 mg/mL
- solubility ([5]; organic solvent or mixture, Ethyl acetate (SAS5)): 4.4 to 4.6 mg/mL (≈ 7.76 to 8.12 mM)
- solubility ([5]; organic solvent or mixture, Isopropanol (SAS7)): < 2.7 mg/mL
- solubility ([5]; organic solvent or mixture, Methanol (SAS8)): < 2.9 mg/mL
- solubility ([5]; organic solvent or mixture, Tetrahydrofuran (SAS9)): > 181 mg/mL
- solubility ([5]; Water (SAS10)): < 3.1 mg/mL
- Mass loss attributed to water (TGA/TGMS) ([3]; 25° C./60% RH for 1 month): 3.7%
- Mass loss attributed to water (TGA/TGMS) ([3]; 25° C./60% RH for 3 months): 4.1%
- Mass loss attributed to water (TGA/TGMS) ([3]; 25° C./60% RH for 15 months): 3.3%
- API chemical purity (area %) ([3]; 25° C./60% RH for 24 months): 87.2%
- Mass loss attributed to water (TGA/TGMS) ([3]; 25° C./60% RH for 24 months): 5.3%
- Mass loss attributed to water (TGA/TGMS) ([3]; 40° C./75% RH for 1 month): 4.0%
- Mass loss attributed to water (TGA/TGMS) ([3]; 40° C./75% RH for 3 months): 4.4%
- Mass loss attributed to water (TGA/TGMS) ([3]; 40° C./75% RH for 15 months): 3.7%
- API chemical purity (area %) ([3]; 40° C./75% RH for 24 months): 90.7%
- Mass loss attributed to water (TGA/TGMS) ([3]; 40° C./75% RH for 24 months): 5.2%
SMILES: CN1CCN(Cc2ccc(-c3cnc(N4CCOC(Cn5nnc6ncc(-c7cnn(C)c7)nc65)C4)nc3)cc2)CC1 (stereo not shown) [ABN-401]
- Chemical degradation in solution ([4]; samples kept at 50° C. and 80° C. for one hour, acetone, 1,2-dimethoxyethane, acetonitrile): No significant chemical degradation was observed
- Chemical degradation (LCMS) ([3]; 24 months at 25° C./60% RH and at 40° C./75% RH): chemical degradation is occurring at both conditions

SMILES: CC1(C)[C@@H]2CC[C@]1(CS(=O)(=O)O)C(=O)C2.CN1CCN(Cc2ccc(-c3cnc(N4CCO[C@H](Cn5nnc6ncc(-c7cnn(C)c7)nc65)C4)nc3)cc2)CC1 [Camp1]
- Form after AAC ([1]; Exp. ID SSm14, Acetone, API:CI 1:1): Camp1
- Form after AAC ([1]; Exp. ID SSm37, 1,2-Dimethoxyethane, API:CI 1:1): Camp1

SMILES: CC1(C)[C@@H]2CC[C@]1(CS(=O)(=O)O)C(=O)C2.CN1CCN(Cc2ccc(-c3cnc(N4CCO[C@H](Cn5nnc6ncc(-c7cnn(C)c7)nc65)C4)nc3)cc2)CC1 [Camp4]
- Form after AAC ([1]; Exp. ID GEN16, Chloroform): Camp4
- Form after AAC ([1]; Exp. ID GEN19, Heptane): Camp4
- Form after AAC ([1]; Exp. ID GEN23, IPA/Water (97/3), lc = low crystalline): lc
- Form after AAC ([1]; Exp. ID GEN25, 1,4-Dioxane/Water (96/4)): Camp4
- Form after AAC ([1]; Exp. ID GEN26, THF/Water (95/5)): Camp4

SMILES: CC1(C)[C@@H]2CC[C@]1(CS(=O)(=O)O)C(=O)C2.CN1CCN(Cc2ccc(-c3cnc(N4CCO[C@H](Cn5nnc6ncc(-c7cnn(C)c7)nc65)C4)nc3)cc2)CC1 [Camp5]
- Form after AAC ([1]; Exp. ID GEN21, THF): Camp2
